Measured values: patent publication US20170354177A1, “ANTIFUNGAL COMPOSITION COMPRISING ANTIFUNGAL PEPTIDE AND TERPENE ALCOHOL” (MARUHA NICHIRO CORPORATION, priority 2014, published 2017)

Key:
[1] = tested on: Candida albicans TIMM1768; assay: In vitro screening of material performing synergistic effect (10 min contact, crystal violet staining, absorbance 620 nm); format: cell-based; details: for synergistic effect by the combined use with a protamine hydrolysate: combined with protamine hydrolysate 0.125 or 2.0 mg/mL; for antibacterial activity in single use (relative absorbance, blank = 1): 0.008-1 mg/mL
From the text: Candida albicans TIMM1768
Hinokitiol (manufactured by Kiseitech Co., Ltd.), terpinen-4-ol (manufactured by Tokyo Chemical Industry, Co., Ltd.), geraniol (manufactured by Kanto Chemical Co., Inc.), menthol (manufactured by Wako Pure Chemical Industries, Ltd.), cinnamaldehyde (manufactured by Wako Pure Chemical Industries, Ltd.) and capric acid (manufactured by Wako Pure Chemical Industries, Ltd.) were individually dissolved in RPMI medium so that the concentration in a test material was 0.008, 0.04, 0.2, 1 mg/mL, and the protamine hydrolysate prepared according to Example 1 was dissolved so that the concentration of the protamine hydrolysate in a test material was 0, 0.125, 2.0 mg/mL, and the solutions were subjected to the test. Further, 0.002, 0.008, 0.031, 0.125, 0.5, 2, 8, 32 mg/mL solutions using the protamine hydrolysate singly were subjected to the test. Evaluation method
C. albicans TIMM1768 strain was added to a 96 well microplate each in an amount of 200 μL so that 2.5×10^5 cells/well, and cultured for 2.5 to 3.5 hours at 37° C. under 5% CO2. After cultivation, each medium was removed under suction, and each test material was added in an amount of 200 μL/well. After allowing to stand still at 37° C. for 10 minutes, each sample solution was removed under suction, and RPMI medium was added in an amount of 200 μL/well, and cultured for 2.5 hours at 37° C. under 5% CO2. After cultivation, each sample was stained with crystal violet and the absorbance at 620 nm was measured. The antibacterial activity was expressed in terms of the relative value of each experimental section when the blank absorbance was 1.
The results of in vitro evaluation when using a protamine hydrolysate and terpene alcohols in combination are shown in FIGS. 1 to 6, and the result of in vitro evaluation when using a protamine hydrolysate singly is shown in FIG. 7. In FIGS. 1 to 6, ♦ represents the result of single use of terpene alcohols, ▪ represents the result of the combined use with a protamine hydrolysate 0.125 mg/ml, and ▴ represents the result of the combined use with a protamine hydrolysate 2.0 mg/ml, respectively.

[2] = tested on: Candida albicans TIMM1768; assay: In vitro combined use of protamine hydrolysate and Hinokitiol (16 h culture, crystal violet), IC90 and FIC index; format: cell-based; details: TIMM1768, Pro 0, none printed in the table, read-out: IC90 of hinokitiol alone
Method: FIC index=A1/A0+B1/B0 (1) • A0: MIC when agent A is used alone • A1: MIC of agent A when agent A and agent B are used in combination • B0: MIC when agent B is used alone • B1: MIC of agent B when agent A and agent B are used in combination Evaluation of synergistic effect by FIC index • FIC≦0.5: synergistic effect • 0.5<FIC≦1.0: additive effect • 1.0<FIC≦2.0: no relation • 2.0<FIC: antagonistic effect
Hinokitiol (manufactured by Kiseitech Co., Ltd.) was dissolved in RPMI medium so that the concentration in each test material was 0, 0.004, 0.008, 0.016, 0.031, 0.063, 0.125, 0.25, 0.5, or 1 μg/mL, and the protamine hydrolysate prepared according to Example 1 was dissolved so that the concentration of the protamine hydrolysate in each test material was 0, 0.156, 0.313, 0.625, 1.25, 2.5, 5, or 10 μg/mL, and they were subjected to the test.
C. albicans TIMM1768 strain was diluted with RPMI medium so that 5.0×10^3 cells/m L, then, added to a 96 well microplate each in an amount of 100 μL. The protamine hydrolysate solution was added each in an amount of 50 μL/well, then, Hinokitiol was added each in an amount of 50 μL/well. After cultivation for 16 hours at 37° C. under 5% CO2, each sample was stained with crystal violet and the absorbance at 620 nm was measured.

Row | IC90 [2] | SMILES | synergistic effect by the combined use with a protamine hydrolysate [1] | antibacterial activity in single use (relative absorbance, blank = 1) [1]
1 |  | CCCCCCCCCC(=O)O [capric acid, reference compound] | the synergistic effect by the combined use with a protamine hydrolysate was not recognized | little antibacterial activity
2 |  | CC(C)=CCC/C(C)=C/CO [geraniol] | the activity was slightly improved by the combined use with a protamine hydrolysate | low activity
3 |  | O=CC=Cc1ccccc1 [Cinnamaldehyde, cinnamaldehyde, reference compound] | the synergistic effect by the combined use with a protamine hydrolysate was not recognized | little antibacterial activity
4 |  | CC1CCC(C(C)C)C(O)C1 (stereo not shown) [menthol] | the activity was slightly improved by the combined use with a protamine hydrolysate | low activity
5 |  | CC1=CCC(O)(C(C)C)CC1 (stereo not shown) [terpinen-4-ol] | the activity was slightly improved by the combined use with a protamine hydrolysate | low activity
6 | 0.77 µg/mL | CC(C)c1cccc(=O)c(O)c1 [Hinokitiol] | a synergistic effect of improving activity by the combined use with a protamine hydrolysate was recognized | showed an antibacterial activity even in the single use
